Where two headings read alike, the source gives them in different places.

This test addresses trypsin (Sus scrofa, UniProt P00761). The experiment in a line: casein digestion protease inhibition assay, absorbance at […] nm. Type of test: biochemical.
[1] abbreviates: read-out: IC50 (mg/mL) * (converted).

Chain of trypsin (P00761 9-231): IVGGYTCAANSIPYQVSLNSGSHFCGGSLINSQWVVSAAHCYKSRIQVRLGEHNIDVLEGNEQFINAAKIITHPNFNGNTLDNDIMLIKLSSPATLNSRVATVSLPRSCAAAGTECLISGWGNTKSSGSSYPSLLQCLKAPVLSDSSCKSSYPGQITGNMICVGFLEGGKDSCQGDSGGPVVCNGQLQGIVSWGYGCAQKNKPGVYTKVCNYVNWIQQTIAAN

`CC(=O)Oc1ccccc1C(=O)O` [acetylsalicylic acid, reference compound] had an IC50 of 2250 µM. As for `NNC(=O)COc1ccccc1C(=O)Nc1ccccc1Br` [HD, N-(2-bromo-phenyl)-2-hydrazinocarbonylmethoxy-benzamide], under setting [1], the IC50 was 171 µM. Take `O=C(COc1ccccc1C(=O)Nc1ccccc1Br)NN=Cc1cc(Br)ccc1O` [HN, 2-(5-bromo-2-hydroxy-benzylidene-hydrazinocarbonylmethoxy)-N-(2-bromo-phenyl)-benzamide]: the IC50 under setting [1] is 102 µM. Regarding `CCOC(=O)COc1ccccc1C(=O)Nc1ccccc1Br` [EE, [2-(2-bromophenylcarbamoyl)phenoxy]acetic acid ethyl ester], the IC50 under setting [1] is 115 µM.

These data come from PMC12300325, “Antimicrobial and Anti-Inflammatory Activity of N-(2-Bromo-phenyl)-2-hydroxy-benzamide Derivatives and Their Inclusion Complexes” (Pharmaceutics, 2025).
